In article PMC6328429, “Synthesis of a benzoxazinthione derivative of tanaproget and pharmacological evaluation for PET imaging of PR expression” (EJNMMI Radiopharmacy and Chemistry, 2019):
Entries after “also recorded” stand apart in the source; their conditions may differ.

What was measured:
GR = target: T1, GR (Homo sapiens, UniProt P04150); assay: PatHunter express CHO-K1 GR nuclear translocation assay; type: cell-based; conditions: CHO-K1 cells; 6 h; at 0.5 μM; dexamethasone positive control
T1 construct: host or cells: CHO-K1 (Chinese hamster ovary) cells
T1 sequence (P04150 1-777): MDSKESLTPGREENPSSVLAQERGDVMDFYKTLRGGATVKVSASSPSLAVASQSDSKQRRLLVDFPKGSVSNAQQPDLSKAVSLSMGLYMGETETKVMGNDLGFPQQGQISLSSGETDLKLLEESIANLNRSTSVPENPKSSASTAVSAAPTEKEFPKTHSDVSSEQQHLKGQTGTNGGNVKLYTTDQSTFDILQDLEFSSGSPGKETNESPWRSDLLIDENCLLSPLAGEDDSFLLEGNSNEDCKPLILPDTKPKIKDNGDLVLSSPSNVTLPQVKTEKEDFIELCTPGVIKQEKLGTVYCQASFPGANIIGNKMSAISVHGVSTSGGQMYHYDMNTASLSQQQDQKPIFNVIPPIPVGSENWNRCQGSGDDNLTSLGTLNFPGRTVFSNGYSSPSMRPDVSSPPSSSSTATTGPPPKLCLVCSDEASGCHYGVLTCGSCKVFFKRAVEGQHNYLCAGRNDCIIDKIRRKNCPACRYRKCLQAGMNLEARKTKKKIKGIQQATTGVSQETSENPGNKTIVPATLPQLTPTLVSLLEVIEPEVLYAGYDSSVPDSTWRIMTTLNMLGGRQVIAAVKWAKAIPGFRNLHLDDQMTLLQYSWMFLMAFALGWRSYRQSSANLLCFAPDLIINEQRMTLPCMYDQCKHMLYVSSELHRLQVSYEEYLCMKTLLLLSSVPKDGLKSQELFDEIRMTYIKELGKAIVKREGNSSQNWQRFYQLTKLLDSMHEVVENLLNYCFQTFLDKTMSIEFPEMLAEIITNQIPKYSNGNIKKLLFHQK
Protocol: Compound 2 was analysed for GR binding using the PatHunter® express CHO-K1 GR Nuclear Translocation assay (DiscoveRx™, Fremont, CA, USA). Reagents were thawed and equilibrated to room temperature prior to use. Dexamethasone standard (10 mM, 100% DMSO) was diluted and used to prepare 12 standards by 1:4 dilution. Test compound 2 was dissolved in 100% DMSO and diluted in serial 1:3 dilutions to a final concentration of DMSO (v/v) of 0.1%. CHO-K1 (Chinese hamster ovary) cells were seeded in a 96-well plate with CP reagent and incubated for 24 h at 37 °C, 5% CO2. Cells were then incubated with the Dexamethasone standard and compound 2 for 6 h at 37 °C, 5% CO2. Following incubation, signal was detected using the PathHunter® detection reagent provided in the kit and incubated in the dark for 1 h. The plate was read using a luminescence plate reader (Additional file 1: Figure S33).

[1] = In vitro non-radioactive metabolite analysis and clearance in HLM; type: in vitro ADME, human
Protocol: Microsomal incubations were performed using a Hamilton Microlab Star liquid handling workstation (Hamilton Robotics, Bonaduz, Switzerland). Test compound 2 (final concentration 1 or 10 μM, 1% DMSO) was pre-incubated at 37 °C for 10 min in MLM or HLM (final concentration 1 mg/ml prepared in 10 mM PBS). Reactions were initiated by the addition of NADPH (final concentration 1 mM). Aliquots were removed from each incubation and quenched in 3 volumes of ice-cold MeOH containing internal standard olomoucine (500 nM in MeOH) at − 1, 0, 5, 15, 30 and 60 min. Incubations were conducted in singlicate. […] Terminated incubations were centrifuged at 3700 rpm at 4 °C for 30 min and supernatant taken for analysis. Microsomal incubations were analysed by liquid chromatography-tandem mass spectrometry (LC-MS/MS). This consisted of a Dionex Ultimate 3000 UHPLC system coupled to a ThermoScientific Q Exactive Plus orbitrap mass spectrometer (Thermo Fisher Scientific Inc., Waltham, USA). Chromatographic separation was achieved using an Acquity UPLC HSS T3 column (1.8 μm, 100 × 2.1 mm) (Waters, Elstree, UK) at 50 °C and a binary mobile phase gradient at a flow rate of 0.4 ml/min. Initial LC conditions comprised 10% formic acid (0.1%) in water (A), 90% methanol (B). This was ramped to […] at 12 min. Sample analysis was by positive ion electrospray ionization. The capillary voltage was 3.5 kV. Full MS/dd-MS^2 (full MS scan followed by data dependent MS/MS) and Full MS/AIF (full MS scan followed by all ion fragmentation) workflows were used in combination. Full MS was performed at a resolution of 70,000, AGC target 1 e^6; dd-MS2 at a resolution of 17,5000, AGC target 1 e^5. LC-MS response (peak area of the analyte/peak area of internal standard) was fitted to a nonlinear single exponential model using software GraphPad Prism software (v6.07, GraphPad Software, Inc., La Jolla, USA). Elimination rate constant (k) was determined and intrinsic clearance, CLint, was calculated as CLint = (V.k)/mg protein where V is the incubation volume (μl) and mg protein is the mg microsomal protein in the incubation. Identification of metabolites in microsomal incubations and elucidation of their structures was undertaken with Compound Discoverer software (v2.0.0.303, Thermo Fisher Scientific Inc., Waltham, USA).

CC1(C)OC(=S)Nc2ccc(-c3cccnc3F)cc21 [Compound 2, 6-(2-fluoropyridin-3-yl)-4,4-dimethyl-1H-benzo[d][1,3]oxazine-2(4H)-thione]
GR nuclear translocation response (GR): poor binder; also recorded: failed to elicit a response | Metabolite identification by mass spectrometry in HLM ([1]; HLM incubation, LC-MS/MS): conversion of the thiocarbamate into oxocarbamate as the major metabolic pathway and highlighted oxidative defluorination | Clearance, fold slower in HLM than in MLM ([1]; HLM versus MLM): ca. 22 fold | microsomal CLint ([1]; human, human liver microsomes, HLM 1 mg/ml, NADPH 1 mM, 37 °C): 56 µL/min/mg
